According to US11197933B2, “Polysubunit opioid prodrugs resistant to overdose and abuse” (Elysium Therapeutics, Inc., priority 2017, dated 2021):

How the values were obtained:
[1] = Rate of release of opioid agonist (key differentiating attributes, Table 5); conditions: for Rate of Release of Opioid Against: in words (Fast/Slow); for half-life: read-out: Rate of Release of Opioid Against: T1/2
Description: (§1) As mentioned previously, a wide range of targeted oral pharmacokinetic profiles can be achieved by administering pharmaceutical compositions containing specific combinations of different polysubunit molecules to subjects. For example, the different polysubunit molecules contained in the composition may differ with regard to (i) the specific opioid agonists delivered, (ii) the rates at which the opioid agonist is delivered in vivo (i.e. to modify the oral pharmacokinetic profile of the delivered opioid), and (iii) the combined inhibitory potency of the GI enzyme inhibiting subunits [i.e. to modify the overdose protection profile and/or the prescribed dose strengths of the delivered opioid agonist(s)]. Table 5 below provides non-limiting examples of compounds of the invention with their key differentiating attributes. Table 6 discusses scenarios and rationales for using the compounds presented in Table 5 in combination with each other, in useful pharmaceutical formulations of the invention.

trypsin [2] = target: T1, trypsin (Bos taurus, UniProt P00760); assay: Trypsin inhibitory potency (key differentiating attributes, Table 5); type: biochemical
T1 construct: gene PRSS1
T1 sequence (P00760 24-246): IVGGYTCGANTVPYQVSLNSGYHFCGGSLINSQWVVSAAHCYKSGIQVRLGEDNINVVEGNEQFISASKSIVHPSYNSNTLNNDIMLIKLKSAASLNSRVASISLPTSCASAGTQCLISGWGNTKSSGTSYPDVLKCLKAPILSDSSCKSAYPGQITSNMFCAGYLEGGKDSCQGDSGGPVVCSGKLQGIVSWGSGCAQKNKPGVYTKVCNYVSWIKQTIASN
Description: as §1

[3] = after oral doses; cited from earlier work
[4] = in man; cited from earlier work
trypsin [5] = target: T1, trypsin; assay: Inhibition of trypsin-catalyzed hydrolysis of BANA (percent BANA remaining vs. time); type: biochemical; conditions: for Ability to inhibit trypsin (result in words): increasing concentrations, BANA substrate
Experimental: This example describes in vitro experiments with a compound of the disclosure to provide a mechanism of overdose protection.
The effect of increasing concentrations of compounds II-D-11, II-D-23, II-D-71c and II-D-71b on the rate and extent of the trypsin-catalyzed hydrolysis of a commercially available trypsin substrate Nα-Benzoyl-L-arginine 4-nitroanilide hydrochloride (BANA) was evaluated in the presence of trypsin (2,000 BAEE activity) in a pH 7.4 phosphate buffer at 37° C. in vitro. Both buffer solution alone (i.e. no trypsin) and trypsin containing buffer solution (i.e. no test compounds) controls were run contemporaneously.

With COc1ccc2c3c1OC1C(OC(=O)N(C)C(CNC(=O)[C@H](CCCNC(=N)N)NC(=O)CNC(C)=O)C(=O)NCCCC[C@H](NC(=O)OCc4ccccc4)C(=O)NCCOc4ccc(C(=O)Oc5cccc(NC(=N)N)c5)cc4)=CC[C@H]4[C@@H](C2)N(C)CC[C@]314 (stereo partly drawn) [II-J-71b] the “Rate of Release of Opioid Against” value [1] was “Slow”, the half-life [1] was roughly 3 h and the “Trypsin Inhibitory Potency” value (trypsin [2]) was “Low”.
In the case of O=C1CC[C@@]2(O)[C@H]3Cc4ccc(O)c5c4[C@@]2(CCN3CC2CC2)[C@H]1O5 [naltrexone, Naltrexone], the Duration of action [3] is given as roughly 24 h and the Oral bioavailability [4] is given as 5-40%.
With COc1ccc2c3c1O[C@H]1C(OC(=O)N4CCC(C(=O)NCCCC[C@H](NC(=O)OCc5ccccc5)C(=O)NCCOc5ccc(C(=O)Oc6ccc(NC(=N)N)cc6)cc5)CC4CNC(=O)[C@@H](CCCNC(=N)N)NC(=O)CNC(C)=O)=CC[C@H]4[C@@H](C2)N(C)CC[C@]314 (stereo partly drawn) [II-D-71c] the “Rate of Release of Opioid Against” value [1] was “Fast”, the half-life [1] was roughly 0.167 h and the “Percent BANA remaining” value (trypsin [5]; 1 uM compound, 2 minutes, pH 7.4, 37° C.) was 81.5%. For the same molecule, the “Percent BANA remaining” value (trypsin [5]; 1 uM compound, 13 minutes, pH 7.4, 37° C.) was 0%, the “Percent BANA remaining” value (trypsin [5]; 1 uM compound, 24 minutes, pH 7.4, 37° C.) was 0% and the “Percent BANA remaining” value (trypsin [5]; 1 uM compound, 35 minutes, pH 7.4, 37° C.) was 0%. The “Percent BANA remaining” value (trypsin [5]; 1 uM compound, 46 minutes, pH 7.4, 37° C.) was 0%, the “Percent BANA remaining” value (trypsin [5]; 1 uM compound, 57 minutes, pH 7.4, 37° C.) was 0% and the “Percent BANA remaining” value (trypsin [5]; 1 uM compound, 68 minutes, pH 7.4, 37° C.) was 0%. The “Percent BANA remaining” value (trypsin [5]; 10 uM compound, 2 minutes, pH 7.4, 37° C.) was 76.5%, the “Percent BANA remaining” value (trypsin [5]; 10 uM compound, 13 minutes, pH 7.4, 37° C.) was 58.5% and the “Percent BANA remaining” value (trypsin [5]; 10 uM compound, 24 minutes, pH 7.4, 37° C.) was 42.5%. The “Percent BANA remaining” value (trypsin [5]; 10 uM compound, 35 minutes, pH 7.4, 37° C.) was 26.0%, the “Percent BANA remaining” value (trypsin [5]; 10 uM compound, 46 minutes, pH 7.4, 37° C.) was 13.0% and the “Percent BANA remaining” value (trypsin [5]; 10 uM compound, 57 minutes, pH 7.4, 37° C.) was 4.7%. For the same molecule, the “Percent BANA remaining” value (trypsin [5]; 10 uM compound, 68 minutes, pH 7.4, 37° C.) was 0%, the “Percent BANA remaining” value (trypsin [5]; 100 uM compound, 2 minutes, pH 7.4, 37° C.) was 100% and the “Percent BANA remaining” value (trypsin [5]; 100 uM compound, 13 minutes, pH 7.4, 37° C.) was 100%. The “Percent BANA remaining” value (trypsin [5]; 100 uM compound, 24 minutes, pH 7.4, 37° C.) was 99%, the “Percent BANA remaining” value (trypsin [5]; 100 uM compound, 35 minutes, pH 7.4, 37° C.) was 100% and the “Percent BANA remaining” value (trypsin [5]; 100 uM compound, 46 minutes, pH 7.4, 37° C.) was 100%. The “Percent BANA remaining” value (trypsin [5]; 100 uM compound, 57 minutes, pH 7.4, 37° C.) was 100%, the “Percent BANA remaining” value (trypsin [5]; 100 uM compound, 68 minutes, pH 7.4, 37° C.) was 100% and the “Percent BANA remaining” value (trypsin [5]; 1 mM compound, 2 minutes, pH 7.4, 37° C.) was 100%. For the same molecule, the “Percent BANA remaining” value (trypsin [5]; 1 mM compound, 13 minutes, pH 7.4, 37° C.) was 100%, the “Percent BANA remaining” value (trypsin [5]; 1 mM compound, 24 minutes, pH 7.4, 37° C.) was 99% and the “Percent BANA remaining” value (trypsin [5]; 1 mM compound, 35 minutes, pH 7.4, 37° C.) was 100%. The “Percent BANA remaining” value (trypsin [5]; 1 mM compound, 46 minutes, pH 7.4, 37° C.) was 100%, the “Percent BANA remaining” value (trypsin [5]; 1 mM compound, 57 minutes, pH 7.4, 37° C.) was 100% and the “Percent BANA remaining” value (trypsin [5]; 1 mM compound, 68 minutes, pH 7.4, 37° C.) was 100%. The “Ability to inhibit trypsin (result in words)” value (trypsin [5]; pH 7.4, 37° C.) was “progressively inhibit trypsin in a concentration dependent manner” and the “Trypsin Inhibitory Potency” value (trypsin [2]) was “High”.
For C[C@H]1[C@H]2Cc3ccc(O)cc3[C@]1(C)CCN2CC1CC1 [cyclazocine], the Duration of action [3] is given as roughly 24 h.
With COc1ccc2c3c1O[C@H]1C(OC(=O)N4CCC(C(=O)NCCCC[C@H](NC(=O)OCc5ccccc5)C(=O)NCCOc5ccc(C(=O)Oc6cccc(NC(=N)N)c6)cc5)CC4CNC(=O)[C@@H](CCCNC(=N)N)NC(=O)CNC(C)=O)=CC[C@H]4[C@@H](C2)N(C)CC[C@]314 (stereo partly drawn) [II-D-71b] the “Rate of Release of Opioid Against” value [1] was “Fast”, the half-life [1] was roughly 0.167 h and the “Percent BANA remaining” value (trypsin [5]; compound 10 uM, 2 minutes, trypsin 2,000 BAEE activity, pH 7.4 phosphate buffer, 37° C.) was 87.9%. The “Percent BANA remaining” value (trypsin [5]; compound 10 uM, 13 minutes, trypsin 2,000 BAEE activity, pH 7.4 phosphate buffer, 37° C.) was 0%, the “Percent BANA remaining” value (trypsin [5]; compound 10 uM, 24 minutes, trypsin 2,000 BAEE activity, pH 7.4 phosphate buffer, 37° C.) was 0% and the “Percent BANA remaining” value (trypsin [5]; compound 10 uM, 35 minutes, trypsin 2,000 BAEE activity, pH 7.4 phosphate buffer, 37° C.) was 0%. The “Percent BANA remaining” value (trypsin [5]; compound 10 uM, 46 minutes, trypsin 2,000 BAEE activity, pH 7.4 phosphate buffer, 37° C.) was 0%, the “Percent BANA remaining” value (trypsin [5]; compound 10 uM, 57 minutes, trypsin 2,000 BAEE activity, pH 7.4 phosphate buffer, 37° C.) was 0% and the “Percent BANA remaining” value (trypsin [5]; compound 10 uM, 68 minutes, trypsin 2,000 BAEE activity, pH 7.4 phosphate buffer, 37° C.) was 0%. For the same molecule, the “Percent BANA remaining” value (trypsin [5]; compound 100 uM, 2 minutes, trypsin 2,000 BAEE activity, pH 7.4 phosphate buffer, 37° C.) was 93.1%, the “Percent BANA remaining” value (trypsin [5]; compound 100 uM, 13 minutes, trypsin 2,000 BAEE activity, pH 7.4 phosphate buffer, 37° C.) was 15.1% and the “Percent BANA remaining” value (trypsin [5]; compound 100 uM, 24 minutes, trypsin 2,000 BAEE activity, pH 7.4 phosphate buffer, 37° C.) was 2.4%. For the same molecule, the “Percent BANA remaining” value (trypsin [5]; compound 100 uM, 35 minutes, trypsin 2,000 BAEE activity, pH 7.4 phosphate buffer, 37° C.) was 2.3%, the “Percent BANA remaining” value (trypsin [5]; compound 100 uM, 46 minutes, trypsin 2,000 BAEE activity, pH 7.4 phosphate buffer, 37° C.) was 1.4% and the “Percent BANA remaining” value (trypsin [5]; compound 100 uM, 57 minutes, trypsin 2,000 BAEE activity, pH 7.4 phosphate buffer, 37° C.) was 0%. For the same molecule, the “Percent BANA remaining” value (trypsin [5]; compound 100 uM, 68 minutes, trypsin 2,000 BAEE activity, pH 7.4 phosphate buffer, 37° C.) was 0%, the “Percent BANA remaining” value (trypsin [5]; compound 1 mM, 2 minutes, trypsin 2,000 BAEE activity, pH 7.4 phosphate buffer, 37° C.) was 100% and the “Percent BANA remaining” value (trypsin [5]; compound 1 mM, 13 minutes, trypsin 2,000 BAEE activity, pH 7.4 phosphate buffer, 37° C.) was 76.1%. The “Percent BANA remaining” value (trypsin [5]; compound 1 mM, 24 minutes, trypsin 2,000 BAEE activity, pH 7.4 phosphate buffer, 37° C.) was 66.6%, the “Percent BANA remaining” value (trypsin [5]; compound 1 mM, 35 minutes, trypsin 2,000 BAEE activity, pH 7.4 phosphate buffer, 37° C.) was 59.6% and the “Percent BANA remaining” value (trypsin [5]; compound 1 mM, 46 minutes, trypsin 2,000 BAEE activity, pH 7.4 phosphate buffer, 37° C.) was 56.3%. For the same molecule, the “Percent BANA remaining” value (trypsin [5]; compound 1 mM, 57 minutes, trypsin 2,000 BAEE activity, pH 7.4 phosphate buffer, 37° C.) was 55.7%, the “Percent BANA remaining” value (trypsin [5]; compound 1 mM, 68 minutes, trypsin 2,000 BAEE activity, pH 7.4 phosphate buffer, 37° C.) was 53.7% and the “Ability to inhibit trypsin (result in words)” value (trypsin [5]; pH 7.4, 37° C.) was “progressively inhibit trypsin in a concentration dependent manner”. For the same molecule, the “Trypsin Inhibitory Potency” value (trypsin [2]) was “Low”.
With COc1ccc2c3c1OC1C(OC(=O)N(C)C(CNC(=O)[C@H](CCCNC(=N)N)NC(=O)CNC(C)=O)C(=O)NCCCC[C@H](NC(=O)OCc4ccccc4)C(=O)NCCOc4ccc(C(=O)Oc5ccc(NC(=N)N)cc5)cc4)=CC[C@H]4[C@@H](C2)N(C)CC[C@]314 (stereo partly drawn) [II-J-71c] the “Rate of Release of Opioid Against” value [1] was “Slow”, the half-life [1] was roughly 3 h and the “Trypsin Inhibitory Potency” value (trypsin [2]) was “High”.
